Measurements from ChEMBL document CHEMBL5131397, “Discovery and Optimization of Pyrazole Amides as Inhibitors of ELOVL1” (J Med Chem, 2021).
pIC50: −log10 of the molar value. Active and inactive are the calls of the source. No cut-off for these calls is given here.

Assays:
[1] = tested on: Mus musculus; experiment: Reduction in C26:0/C16:0 LPC level in high fat diet fed ABCD1 knock out mouse blood at 1 to 8 mg/kg, po qd measured on day 28 after 7 days of treatment discontinuation by LC-MS/MS analysis; assay type: functional, organism-based; conditions: dose 1-8 mg/kg, time 28.0 day
[2] = Half life in mouse at 1 mg/kg, iv upto 48 hrs by LC/MS/MS analysis; assay type: ADME, organism-based; conditions: in vivo
[3] = Reduction in C26:0 LPC level in ABCD1 knock out mouse blood at or above 4 mg/kg, po qd for 105 days by LC-MS/MS analysis relative to control; assay type: functional; set-up: scale not given: the % may be the effect or the level left; conditions: time 105 day
[4] = target: T1, Very long chain fatty acid elongase 1 (Homo sapiens, UniProt Q9BW60); experiment: Inhibition of ELOVL1 in human HEK293 cells assessed as reduction of C26:0 VLCFA synthesis incubated for 48 hrs by cellular assay; assay type: cell-based
T1 sequence (Q9BW60 whole entry): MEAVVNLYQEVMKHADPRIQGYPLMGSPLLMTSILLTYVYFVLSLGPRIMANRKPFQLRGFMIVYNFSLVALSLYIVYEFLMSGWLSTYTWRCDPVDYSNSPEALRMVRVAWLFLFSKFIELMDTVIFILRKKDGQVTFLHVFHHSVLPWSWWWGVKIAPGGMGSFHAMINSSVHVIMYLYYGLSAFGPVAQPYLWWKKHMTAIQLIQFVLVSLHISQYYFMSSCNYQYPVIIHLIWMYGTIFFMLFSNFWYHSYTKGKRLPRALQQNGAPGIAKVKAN

[5] = tested on: Fibroblast; experiment: Reduction in C26:0/C16:0 lysophosphatidyl choline levels in healthy donor-derived human fibroblast incubated for 48 hrs; assay type: functional, cell-based
[6] = Toxicity in juvenile Sprague-Dawley rat assessed as corneal mineralization at 5 to 75 mg/kg/day, po treatment started from postnatal day 18 to 114 days; assay type: organism-based; conditions: in vivo, dose lower 5 mg/kg/day, time lower 18 day, dose upper 75 mg/kg/day, time upper 114 day
[7] = Volume of distribution at steady state in Cynomolgus monkey at 1 mg/kg, iv upto 48 hrs by LC/MS/MS analysis; assay type: ADME, organism-based, Macaca fascicularis; conditions: in vivo, read-out: Vdss
[8] = target: T1, Very long chain fatty acid elongase 1; experiment: Inhibition of ELOVL1 in human microglia assessed as reduction of C26:0 VLCFA synthesis incubated for 48 hrs by cellular assay; assay type: cell-based
[9] = tested on: Mus musculus; experiment: Reduction in C26:0/C16:0 LPC level in high fat diet fed ABCD1 knock out mouse blood at 1 to 8 mg/kg, po qd after 7 days of dosing measured on day 14 by LC-MS/MS analysis; assay type: functional, organism-based; conditions: dose 1-8 mg/kg, time 14.0 day
[10] = Cmax in Cynomolgus monkey at 3 mg/kg, po upto 24 hrs by LC/MS/MS analysis; assay type: ADME, organism-based, Macaca fascicularis; set-up: time < 24 hrs, dose 3 mg/kg, route po; conditions: in vivo
[11] = Toxicity in Sprague-Dawley rat assessed as erosion of forestomach at 5 to 50 mg/kg/day, po administered for 2 to 8 weeks; assay type: organism-based; conditions: in vivo, dose lower 5 mg/kg/day, time lower 2 weeks, dose upper 50 mg/kg/day, time upper 8 weeks
[12] = Volume of distribution at steady state in Beagle dog at 0.5 mg/kg, iv upto 48 hrs by LC/MS/MS analysis; assay type: ADME, organism-based, Canis lupus familiaris; conditions: in vivo, read-out: Vdss
[13] = Cmax in Beagle dog at 3 mg/kg, po upto 24 hrs by LC/MS/MS analysis; assay type: ADME, organism-based, Canis lupus familiaris; set-up: dose 3 mg/kg, time < 24 hrs, route po; conditions: in vivo
[14] = Reduction in C26:0 LPC level in ABCD1 knock out mouse blood assessed as fold increase at 0.5 to 32 mg/kg, po qd for 105 days by LC-MS/MS analysis; assay type: functional; conditions: dose 0.5-32 mg/kg, time 105 day
[15] = Plasma protein binding in human at 5 uM; assay type: ADME, cell-free; conditions: read-out: PPB (converted)
[16] = Reduction in C26:0 LPC level in ELOVL-1 KO clonal human HEK-293T cells in presence of 13C-labeled acetate measured after 48 hrs by mass spectroscopy relative to control; assay type: functional; set-up: scale not given: the % may be the effect or the level left
[17] = tested on: Fibroblast; experiment: Reduction in C26:0 lysophosphatidyl choline synthesis in primary human CALD patient-derived fibroblast incubated for 48 hrs; assay type: functional, cell-based; conditions: DDE = dose-dependent effect
[18] = Reduction in C26:0 LPC level in ABCD1 knock out mouse CNS at 8 mg/kg, po qd measured after 6 months of dosing by LC-MS/MS analysis; assay type: functional; set-up: scale not given: the % may be the effect or the level left; conditions: 4380 h
[19] = Toxicity in ABCD1 knock out mouse assessed as noticeable adverse effects at 8 to 32 mg/kg, po qd treated for 6 months; assay type: organism-based; conditions: in vivo, 4380 h, dose 8-32 mg/kg
[20] = Toxicity in Cynomolgus monkey assessed as hyperkeratosis at 5 to 50 mg/kg/day, po administered for 14 days by microscopic observation analysis; assay type: organism-based, Macaca fascicularis; conditions: in vivo, 336 h, dose 5-50 mg/kg/day, time 14 day
[21] = Plasma protein binding in monkey at 5 uM; assay type: ADME, cell-free, Macaca mulatta; conditions: rhesus monkey, read-out: PPB (converted)
[22] = Toxicity in Cynomolgus monkey assessed as acanthosis at 5 to 50 mg/kg/day, po administered for 14 days by microscopic observation analysis; assay type: organism-based, Macaca fascicularis; conditions: in vivo, 336 h, dose 5-50 mg/kg/day, time 14 day
[23] = Toxicity in Sprague-Dawley rat assessed as corneal keratitis at 5 mg/kg/day, po administered for 8 weeks by macroscopic observation analysis; assay type: organism-based; conditions: in vivo, 1344 h
[24] = Reduction in C26:0/C16:0 total VLFCA levels in ABCD1 knock out mouse CNS at 10 mg/kg, po qd measured after 2 months of dosing by LC-MS/MS analysis; assay type: functional; set-up: scale not given: the % may be the effect or the level left; conditions: 1460 h
[25] = tested on: Mus musculus; experiment: Reduction of C26:0 LPC level in ABCD1 knock out mouse blood at 1 to 16 mg/kg, po qd measured after 6 days of dosing by LC-MS/MS analysis; assay type: functional, organism-based; conditions: dose 1-16 mg/kg, time 6.0 day
[26] = Toxicity in juvenile Sprague-Dawley rat assessed as clonic convulsions 5 to 75 mg/kg/day, po treatment started from postnatal day 75 to 114 days; assay type: organism-based; conditions: in vivo, dose lower 5 mg/kg/day, time lower 75 day, dose upper 75 mg/kg/day, time upper 114 day
[27] = Toxicity in Sprague-Dawley rat assessed as ocular stromal fibrosis at 5 mg/kg/day, po administered for 8 weeks by microscopic observation analysis; assay type: organism-based; conditions: in vivo, 1344 h
[28] = Reduction in C26:0/C16:0 acyl-carnitine levels in ABCD1 knock out mouse CNS at 8 mg/kg, po qd measured after 28 days of dosing by LC-MS/MS analysis; assay type: functional; set-up: scale not given: the % may be the effect or the level left; conditions: time 28 day
[29] = Toxicity in juvenile Sprague-Dawley rat assessed as stomach lesions at 5 to 75 mg/kg/day, po treatment started from postnatal day 18 to 114 days; assay type: organism-based; conditions: in vivo, dose lower 5 mg/kg/day, time lower 18 day, dose upper 75 mg/kg/day, time upper 114 day
[30] = Lipophilicity, logD of compound at pH 7.4; assay type: physicochemical; conditions: buffer
[31] = target: T1, Very long chain fatty acid elongase 1; experiment: Inhibition of ELOVL1 in Het […] 1 patient-derived human lymphocyte assessed as reduction of C26:0 VLCFA synthesis incubated for 48 hrs by cellular assay; assay type: cell-based
[32] = tested on: HEK-293T; experiment: Reduction in C26:0 LPC level in isogenic wild-type human HEK-293T cells with ELOVL-1 expression in presence of 13C-labeled acetate measured after 48 hrs by mass spectroscopy; assay type: functional, cell-based

For O=C(Nc1ccn(-c2ccnc(F)c2)n1)C1(c2ccccc2F)CC1, the Activity [1] was “Active”, the half-life [2] was 2.9 h and the Activity [3] was 85%. For the same compound, the pIC50 [4] was 7.89, the Activity [5] was “Active” and the Activity [6] was “Toxic”. For the same compound, the Vd [7] was 3 L/kg, the pIC50 [8] was 7.96 and the Activity [9] was “Active”. For the same compound, the Cmax [10] was 404 ng/mL, the Activity [11] was “Toxic” and the Vd [12] was 7.5 L/kg. The Cmax [13] was 261 ng/mL, the “fold change (FC)” value [14] was 10 and the fraction unbound at 5 µM [15] was 0.062. For the same compound, the Activity [16] was 90%, the Activity [17] was “Dde” and the Activity [18] was 49%. For the same compound, the Activity [19] was “Non-Toxic”, the Activity [20] was “Toxic” and the fraction unbound at 5 µM [21] was 0.094. The Activity [22] was “Toxic”, the Activity [23] was “Toxic” and the Activity [24] was 50%. For the same compound, the Activity [25] was “Active”, the Activity [26] was “Toxic” and the Activity [27] was “Toxic”. The Activity [28] was 55%, the Activity [29] was “Toxic” and the logD [30] was 3.2. For the same compound, the pIC50 [31] was 8.30 and the Activity [32] was “Active”.
